We go through 47 sequences from the OligoGym collection.

“And” between values parts separate entries of the source, which are not always exact repeats. Identical values can stand only once. After the bases stand the sugars from the 5' end (letter, count) and the backbone: PS all phosphorothioate, else s phosphorothioate and o phosphodiester by linkage. Methylation of C is not given here. e = 2'-O-(2-methoxyethyl) (MOE); k = constrained ethyl (cEt); d = 2'-deoxy (DNA)

The data set has as its target APOL1. To be noted: ASO.

In the case of “CGTCAATATATTCTTT (sugars kekddddeekkddddd, PS)”, the target mRNA inhibition (A431, 2 µM) was determined as 93%.
The same measure, in the same setting: with “GGAATTATGGAATTGC (sugars kdddddkekekddddd, PS)” the figure was 92%.
Take “ATTCTCATGGTACAGG (sugars kkddddkdkdkddddd, PS)”: the target mRNA inhibition (A431, 2 µM) is 84%.
Same read-out and setting: with “GGGAATTATGGAATTG (sugars kkkddddkekeddddd, PS)” the figure was 63%.
For the sequence CTTGTTTTATGGAGTC (sugars k4 d9 k3, PS), the target mRNA inhibition runs as follows: (A431, 0.0625 µM) 85% and 91%; (A431, 0.25 µM) 97%; (A431, 1 µM) 99%.
“TTTATACCAGTGTCTT (sugars kkddddkdkdkddddd, PS)”: the target mRNA inhibition (A431, 2 µM) came out at 81%.
With “CATTCAGAATTTCCAC (sugars kdddddkekekddddd, PS)”, the target mRNA inhibition (A431, 2 µM) was determined as 67%.
Consider “GCTAATTTTCTGACTG (sugars kkkddddkekeddddd, PS)”, for which the target mRNA inhibition worked out at 10% (A431, 0.0156 µM); 42% (A431, 0.0625 µM); 70% (A431, 0.25 µM); 87% (A431, 1 µM); 93% (A431, 2 µM).
Under “A431, 2 µM”, “TATATTTGATCCTCAA (sugars kdddddkekekddddd, PS)” came in with a target mRNA inhibition of 89%.
On to “GTTATATTTGATCCTC (sugars kekddddeekkddddd, PS)”, for which the target mRNA inhibition by setting is: (A431, 0.0156 µM) 37%; (A431, 0.04 µM) 31%; (A431, 0.0625 µM) 71%; (A431, 0.25 µM) 91%; (A431, 1 µM) 98%; (A431, 2 µM) 99%.
Consider “GGAATTATGGAATTGC (sugars kddddkekekeddddd, PS)”, for which the target mRNA inhibition (A431, 2 µM) came out at 88%.
On the same count and under the same terms, then “TATTCTCATGGTACAG (sugars k2 d4 e3 k2 d5, PS)”, with 71%; and “CTTTATACCAGTGTCT (sugars kkddddkekekkdddd, PS)”, with 87%.
For AACATGAAGTGAGCCT (sugars k4 d9 k3, PS), the target mRNA inhibition was 20% (A431, 0.0625 µM); 49% (A431, 0.25 µM); 73% (A431, 1 µM).
The sequence “ACGCAATGCTGACTTG (sugars kddddkekekeddddd, PS)” had a target mRNA inhibition (A431, 2 µM) of 72%.
Still for that read-out and setting: with “GAAGCTTTAAACTCAG (sugars kkkddddkekekdddd, PS)” the figure was 47%; with “TGGGAATTATGGAATT (sugars k2 d4 e3 k2 d5, PS)”, 63%; with “CTTTAAACTCAGGTGA (sugars kdddddkekekddddd, PS)”, 77%.
Take “CGTCAATATATTCTTT (sugars k3 d5 k3 d5, PS)”: the target mRNA inhibition (A431, 0.0156 µM) was found to be 38%; the target mRNA inhibition (A431, 0.0625 µM) is 56% and 62%; the target mRNA inhibition (A431, 0.25 µM) was 84% and 87%; the target mRNA inhibition (A431, 1 µM) stood at 93%; the target mRNA inhibition (A431, 2 µM) came to 94%.
On to “ATCAGATGGGTACTTC (sugars k3 d4 k3 e1 d5, PS)”, for which the target mRNA inhibition (A431, 2 µM) was 88%.
The same measure, in the same setting: then “AAGTATTGCCAGCTAA (sugars kkddddkekekkdddd, PS)”, with 27%; and “TTATATTTGATCCTCA (sugars k3 d4 k3 e1 d5, PS)”, with 96%.
For “AGATTGGCTCTGGCTC (sugars kkddddkekekkdddd, PS)”, the target mRNA inhibition (A431, 2 µM) turned out to be 18%.
On to TGTTTACTTACCGGGT (sugars k4 d9 k3, PS), for which the target mRNA inhibition was 60% and 83% (A431, 0.0625 µM); 86% and 91% (A431, 0.25 µM); 91% and 93% (A431, 1 µM).
The sequence “CAGTTTTGTAAGTGCA (sugars k3 d5 k3 d5, PS)” showed a target mRNA inhibition (A431, 2 µM) of 97%.
Regarding GGGTCAAAAGCGATGG (sugars k4 d9 k3, PS), the target mRNA inhibition by setting is: (A431, 0.0625 µM) 50%; (A431, 0.25 µM) 79%; (A431, 1 µM) 88%.
Sequence GACTTGTTTTATGGAG (sugars k4 d9 k3, PS) had a target mRNA inhibition (A431, 0.0625 µM) of 75%; a target mRNA inhibition (A431, 0.25 µM) of 88%; a target mRNA inhibition (A431, 1 µM) of 92%.
On the same counts, the results for CCTTACTGCAGTTTCA (sugars k4 d9 k3, PS) are 47%, 79% and 91%.
Take “AAGCTTTAAACTCAGG (sugars kkkddddkekeddddd, PS)”: for the setting “A431, 2 µM”, the target mRNA inhibition is 84%.
In the case of AGATTGGCTCAGTGAC (sugars k4 d9 k3, PS), the target mRNA inhibition runs as follows: (A431, 0.0625 µM) 44% and 27%; (A431, 0.25 µM) 70% and 52%; (A431, 1 µM) 87% and 76%.
Turning to “TTTGTAAGTGCAACCA (sugars k2 d4 e3 k2 d5, PS)”, the target mRNA inhibition reads like this: (A431, 0.0156 µM) 23%; (A431, 0.0625 µM) 60%; (A431, 0.25 µM) 87%; (A431, 1 µM) 98%; (A431, 2 µM) 99%.
In the case of “GTAAGTATTGCCAGCT (sugars kkddddkekekddddd, PS)”, the target mRNA inhibition (A431, 2 µM) was determined as 53%.
The same measure, in the same setting: then “GTAAGTATTGCCAGCT (sugars kkddddekekeddddd, PS)”, with 69%; and “CACATCATTGGGTTAT (sugars kkddddkdkdkddddd, PS)”, with 79%.
Turning to “AAGTATTGCCAGCTAA (sugars kddddkekekeddddd, PS)”, the target mRNA inhibition (A431, 2 µM) turned out to be 25%.
Same read-out and setting: then “TTATTCTCATGGTACA (sugars k2 d4 e3 k2 d5, PS)”, with 48%; and “GTTCAAAAGCAGCATT (sugars kkddddkekekddddd, PS)”, with 60%.
Consider AGTCATTAGTGCTATA (sugars k4 d9 k3, PS), for which the target mRNA inhibition was determined as 57% (A431, 0.0625 µM); 78% (A431, 0.25 µM); 88% (A431, 1 µM).
The sequence “GAAGCTTTAAACTCAG (sugars kkddddekekeddddd, PS)” displayed a target mRNA inhibition (A431, 2 µM) of 62%.
Consider “CTTTATACCAGTGTCT (sugars k3 d4 k3 e1 d5, PS)”, for which the target mRNA inhibition amounted to 19% (A431, 0.0156 µM); 54% (A431, 0.0625 µM); 78% (A431, 0.25 µM); 91% (A431, 1 µM); 95% (A431, 2 µM).
Take “TATTCTCATGGTACAG (sugars kkkddddkekeddddd, PS)”: the target mRNA inhibition (A431, 2 µM) came out at 68%.
On the same count and under the same terms, with “TTCTATTAGAGGGCTA (sugars kkddddkekekddddd, PS)” the figure was 53%.
Turning to CCAGCAAAGACAAGAA (sugars k4 d9 k3, PS), the target mRNA inhibition by setting is: (A431, 0.0625 µM) 9% and 0%; (A431, 0.25 µM) 49% and 30%; (A431, 1 µM) 64% and 55% and 50%.
On to ACTGAGGGTATATGAA (sugars k4 d9 k3, PS), for which the target mRNA inhibition reads like this: (A431, 0.0625 µM) 22%; (A431, 0.25 µM) 40%; (A431, 1 µM) 58%.
In turn, “AAGTATTGCCAGCTAA (sugars k3 d5 k3 d5, PS)” showed a target mRNA inhibition (A431, 2 µM) of 90%.
The same measure, in the same setting: then “GTTCTAACTCTTGGGC (sugars kkddddkekekddddd, PS)”, with 61%.
TATGGAATTGCAGATA (sugars k4 d9 k3, PS): the target mRNA inhibition is, setting by setting: (A431, 0.0625 µM) 8%; (A431, 0.25 µM) 46%; (A431, 1 µM) 74%.
